Test [1] deals with T1, ENPP-1 (Homo sapiens, UniProt P22413).
T1 construct: purchased Biovendor RD172124100
T1 sequence (P22413 1-925): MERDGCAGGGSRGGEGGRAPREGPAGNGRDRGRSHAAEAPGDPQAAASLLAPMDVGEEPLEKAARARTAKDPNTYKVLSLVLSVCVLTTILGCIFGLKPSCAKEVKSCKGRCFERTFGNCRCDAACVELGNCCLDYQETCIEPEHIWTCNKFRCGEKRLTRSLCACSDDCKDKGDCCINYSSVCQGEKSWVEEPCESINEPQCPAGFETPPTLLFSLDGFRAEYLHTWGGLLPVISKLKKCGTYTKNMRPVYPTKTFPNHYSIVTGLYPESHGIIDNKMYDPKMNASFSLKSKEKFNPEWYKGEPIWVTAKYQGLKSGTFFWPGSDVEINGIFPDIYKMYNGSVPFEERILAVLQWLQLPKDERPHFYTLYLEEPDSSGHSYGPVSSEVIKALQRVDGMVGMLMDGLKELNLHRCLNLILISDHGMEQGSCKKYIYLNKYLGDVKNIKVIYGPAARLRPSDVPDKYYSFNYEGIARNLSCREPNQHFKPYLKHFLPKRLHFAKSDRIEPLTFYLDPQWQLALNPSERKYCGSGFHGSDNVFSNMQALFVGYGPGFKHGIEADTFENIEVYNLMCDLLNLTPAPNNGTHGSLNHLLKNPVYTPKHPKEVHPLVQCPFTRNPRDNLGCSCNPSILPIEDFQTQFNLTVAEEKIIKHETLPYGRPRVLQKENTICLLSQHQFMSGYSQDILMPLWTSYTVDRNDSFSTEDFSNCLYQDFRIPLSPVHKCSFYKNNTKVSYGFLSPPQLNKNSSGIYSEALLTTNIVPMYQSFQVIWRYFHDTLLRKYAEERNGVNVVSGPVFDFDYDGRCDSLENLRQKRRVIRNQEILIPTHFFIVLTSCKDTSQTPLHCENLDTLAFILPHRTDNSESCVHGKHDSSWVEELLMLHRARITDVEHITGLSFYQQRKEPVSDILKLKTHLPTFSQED
Briefly: ENPP-1 enzyme assay with cGAMP substrate. The format is biochemical. Particulars: 200 pM ENPP-1, 10 μM substrate 2′3′-cGAMP, pH 7.4, 37° C., 30 minutes, Transcreener AMP2/GMP2 kit; average IC50. How it is done: 2′3′-cGAMP is a natural substrate specifically hydrolyzed by ENPP-1, and produces 5′-adenosine monophosphate (AMP) and 5′-guanosine monophosphate (GMP). AMP and GMP produced from the reaction are monitored for ENPP-1 enzyme activity through an AMP^2/GMP^2 ENPP-1 Assay kit (Bellbrook Labs, catalog number 3015).
First, the reaction mixture contains 25 mM Tris-HCl (pH 7.4), 5 mM MgCl2, 0.01% Brij-35, and 1% DMSO. Serially diluted ENPP-1 inhibitors (test compound concentrations ranging from 10 μM to 0.5 nM) are reacted with 200 pM ENPP-1 (Biovendor, catalog number RD172124100) and 10 μM substrate 2′3′-cGAMP at 37° C. for 30 minutes. All assays include a DMSO control without ENPP-1 inhibitor that provides maximal AMP and GMP production. After 30 minutes of this reaction, AMP and GMP production is detected as a measure of ENPP-1 enzymatic activity using the Transcreener® AMP^2/GMP^2 ENPP-1 Assay kit. The detection reagent is a reagent containing 16 nM AMP^2/GMP^2 Antibody-Tb, 25 mM Tris-HCl and 60.1 nM AMP/GMP HiLyte647 Tracer, which is added by 5 μl, mixed well, and incubated at 25° C. for 2 hours.
The […] signal is measured using a SPARK Cyto plate reader (Tecan). Inhibition (%) is calculated using the following formula: (Max 615:665 ratio-615:665 ratio)/Max 615:665 ratio×100%. % residual ENPP-1 enzyme activity versus IC50 values for ENPP-1 inhibitor concentrations were determined by fitting inhibition curves using the 4-parameter method of GraphPad Prism® software [GraphPad version 9.3.1 for Windows, GraphPad Software, La Jolla California USA, www.graphpad.com].

For test [2], the target named is T1, ENPP-1. Briefly: ENPP-1 enzyme assay with pNP-TMP substrate. The format is biochemical. Particulars: 12.5 ng ENPP-1, 720 μM substrate pNP-TMP, pH 9.0, 37° C., 60 minutes, absorbance 405 nm; average IC50. How it is done: In order to measure the ENPP-1 inhibitory activity of the compounds according to the present disclosure, the following tests were performed.
ENPP-1 hydrolyzes a variety of substrates, including phosphodiester bonds of nucleotides and nucleotide sugars and pyrophosphate bonds of nucleotides and nucleotide sugars. p-Nitrophenyl 5′-thymidine monophosphate (p-Nph-5′-TMP) is an artificial substrate for 5′-adenosine monophosphate (AMP), which is hydrolyzed by the human recombinant ENPP-1 enzyme. In the above reaction, ENPP-1 enzymatic activity is monitored through the formation of yellow p-nitrophenolate, which absorbs at 405 nm.
First, the reaction mixture contains 100 mM Tris-HCl (pH 9.0), 150 mM NaCl, […], and 1% DMSO. Serially diluted ENPP-1 inhibitors (test compound concentrations ranging from 10 μM to 0.5 nM) are reacted with 12.5 ng of ENPP-1 (Biovendor, catalog number RD172124100) and 720 μM substrate pNP-TMP at 37° C. for 60 minutes. All assays include a DMSO control without ENPP-1 inhibitor that gives maximum absorbance.
After 60 minutes of this reaction, the […] is measured using an Epoch™ Microplate Spectrophotometer (BioTek Instruments Inc.). Inhibition (%) is calculated using the following formula: Sample OD405 nm/Max OD405 nm×100%. % residual ENPP-1 enzyme activity versus IC50 values for ENPP-1 inhibitor concentrations were determined by fitting inhibition curves using the 4-parameter method of GraphPad Prism® software [GraphPad version 9.3.1 for Windows, GraphPad Software, La Jolla California USA, www.graphpad.com].

The values below come from patent publication US20250367173A1, “ECTONUCLEOTIDE PYROPHOSPHATASE-PHOSPHODIESTERASE-1 INHIBITORS AND PHARMACEUTICAL COMPOSITIONS COMPRISING THE SAME” (LigaChem Biosciences Inc., priority 2022, published 2025).

Usually IC50 stands for the concentration needed to halve the response being measured. With `COc1cc(F)c2c(c1)c1ncccc1n2Cc1ccc(S(N)(=O)=O)cc1` [Compound 25, 4-((6-fluoro-8-methoxy-5H-pyrido[3,2-b]indol-5-yl)methyl)benzenesulfonamide], the IC50 was 1 to 10 µM at ENPP-1 [1] and less than 1 µM on ENPP-1 [2].

With `COc1ccc2c(c1)c1ncccc1n2Cc1ccc(S(C)(=N)=O)cc1` (single isomer, unassigned) [Compound 10a, imino (4-((8-methoxy-5H-pyrido[3,2-b]indol-5-yl)methyl)phenyl)(methyl)-l6-sulfanone], the IC50 on ENPP-1 [1] and against ENPP-1 [2] was less than 1 µM throughout.

Turning to `CCS(=N)(=O)c1ccc(Cn2c3ccc(OC)cc3c3ncccc32)cc1` (stereo not drawn) [Compound 11, ethyl (imino) (4-((8-methoxy-5H-pyrido[3,2-b]indol-5-yl)methyl)phenyl)-l6-sulfanone], the IC50 on ENPP-1 [1] and against ENPP-1 [2] was less than 1 µM throughout.

In the case of `COc1cc2c3ncccc3n(Cc3ccc(S(C)(=N)=O)cc3F)c2cc1F` (stereo not drawn) [Compound 31, (3-fluoro-4-((7-fluoro-8-methoxy-5H-pyrido[3,2-b]indol-5-yl)methyl)phenyl)(imino)(methyl)-l6-sulfanone], the IC50 against ENPP-1 [1] and against ENPP-1 [2] was less than 1 µM each time.

In the case of `COc1ccc2c3cnncc3n(Cc3ccc(S(N)(=O)=O)cc3)c2c1` [Compound 47, 4-((7-methoxy-5H-pyridazino[4,5-b]indol-5-yl)methyl)benzenesulfonamide], the IC50 is 1 to 10 µM on ENPP-1 [1] and less than 1 µM on ENPP-1 [2].

Consider `COc1ccc2c(c1)c1ncccc1n2Cc1ccc(S(C)(=N)=O)cc1F` (stereo not drawn) [Compound 17, (3-fluoro-4-((8-methoxy-5H-pyrido[3,2-b]indol-5-yl)methyl)phenyl)(imino)(methyl)-l6-sulfanone], for which the IC50 on ENPP-1 [1] and at ENPP-1 [2] was less than 1 µM each time.

For the compound `COc1ccc2c(c1)c1cccnc1n2Cc1ccc(S(N)(=O)=O)cc1` [Compound 49, 4-((6-methoxy-9H-pyrido[2,3-b]indol-9-yl)methyl)benzenesulfonamide], the IC50 at ENPP-1 [1] is 1 to 10 µM; against ENPP-1 [2], less than 1 µM.

Take `COc1cc(Cl)c2c(c1)c1ncccc1n2Cc1ccc(S(N)(=O)=O)cc1` [Compound 27, 4-((6-chloro-8-methoxy-5H-pyrido[3,2-b]indol-5-yl)methyl)benzenesulfonamide]: the IC50 at ENPP-1 [1] is 1 to 10 µM; at ENPP-1 [2], less than 1 µM.

As to `COc1cc2c3ncccc3n(Cc3ccc(S(N)(=O)=O)cc3)c2cc1OC` [Compound 28, 4-((7,8-dimethoxy-5H-pyrido[3,2-b]indol-5-yl)methyl)benzenesulfonamide], the IC50 on ENPP-1 [1] and against ENPP-1 [2] was less than 1 µM throughout.

For the compound `COc1ccc2c3cncnc3n(Cc3ccc(S(N)(=O)=O)cc3)c2c1` [Compound 48, 4-((7-methoxy-9H-pyrimido[4,5-b]indol-9-yl)methyl)benzenesulfonamide], the IC50 was 1 to 10 µM against ENPP-1 [1] and less than 1 µM against ENPP-1 [2].

Regarding `COc1ccc2c3c(=O)[nH]ncc3n(Cc3ccc(S(N)(=O)=O)cc3)c2c1` [Compound 45, 4-((7-methoxy-1-oxo-1,2-dihydro-5H-pyridazino[4,5-b]indol-5-yl)methyl)benzene sulfonamide], the IC50 against ENPP-1 [1] and on ENPP-1 [2] was less than 1 µM each time.

For the compound `COc1ccc2c(c1)c1ncccc1n2Cc1ccc(S(=N)(=O)Cc2ccccc2)cc1` (stereo not drawn) [Compound 12, benzyl(imino)(4-((8-methoxy-5H-pyrido[3,2-b]indol-5-yl)methyl)phenyl)-l6-sulfanone], the IC50 at ENPP-1 [1] and at ENPP-1 [2] was less than 1 µM throughout.

Turning to `COc1ccc2c(c1)c1c(n2Cc2ccc(S(N)(=O)=O)cc2)CCCN1` [Compound 38, 4-((8-methoxy-1,2,3,4-tetrahydro-5H-pyrido[3,2-b]indol-5-yl)methyl)benzenesulfonamide], the IC50 on ENPP-1 [1] and at ENPP-1 [2] was less than 1 µM in each case.

In the case of `COc1cc2c(cc1F)c1ncccc1n2Cc1ccc(S(C)(=N)=O)cc1` (stereo not drawn) [Compound 32, (4-((8-fluoro-7-methoxy-5H-pyrido[3,2-b]indol-5-yl)methyl)phenyl)(imino)(methyl)-l6-sulfanone], the IC50 at ENPP-1 [1] and against ENPP-1 [2] was less than 1 µM each time.

Regarding `COc1cc2c3ncccc3n(Cc3ccc(P(=O)(O)O)cc3)c2cc1F` [Compound 57, (4-((7-fluoro-8-methoxy-5H-pyrido[3,2-b]indol-5-yl)methyl)phenyl)phosphonic acid], the IC50 on ENPP-1 [1] and against ENPP-1 [2] was less than 1 µM in each case.

For the compound `COc1ccc2c3c(n(Cc4ccc(S(N)(=O)=O)cc4)c2c1)CCNC3` [Compound 35, 4-((7-methoxy-1,2,3,4-tetrahydro-5H-pyrido[4,3-b]indol-5-yl)methyl)benzenesulfonamide], the IC50 against ENPP-1 [1] was 1 to 10 µM; against ENPP-1 [2], less than 1 µM.

In the case of `COc1ccc2c(c1)c1ncccc1n2CC1CCN(S(N)(=O)=O)CC1` [Compound 6, 4-((8-methoxy-5H-pyrido[3,2-b]indol-5-yl)methyl) piperidine-1-sulfonamide], the IC50 against ENPP-1 [1] and at ENPP-1 [2] was less than 1 µM in each case.

Consider `COc1ccc2c(c1)c1ncccc1n2CCc1ccc(S(N)(=O)=O)cc1` [Compound 9, 4-(2-(8-methoxy-5H-pyrido[3,2-b]indol-5-yl)ethyl)benzenesulfonamide], for which the figures for the IC50 on ENPP-1 [1] and at ENPP-1 [2] were greater than 10 µM and less than 1 µM, respectively.

`CCOc1ccc2c(c1)c1ncccc1n2Cc1ccc(S(C)(=N)=O)cc1` (stereo not drawn) [Compound 24, (4-((8-ethoxy-5H-pyrido[3,2-b]indol-5-yl)methyl)phenyl)(imino)(methyl)-l6-sulfanone]: the IC50 was less than 1 µM against ENPP-1 [1] and 1 to 10 µM on ENPP-1 [2].

As for `COc1ccc2c(c1)c1ncccc1n2Cc1ccc(S(C)(=N)=O)cc1C` (stereo not drawn) [Compound 18, imino (4-((8-methoxy-5H-pyrido[3,2-b]indol-5-yl)methyl)-3-methylphenyl)(methyl)-l6-sulfanone], the IC50 on ENPP-1 [1] and on ENPP-1 [2] was less than 1 µM each time.

In the case of `NS(=O)(=O)c1ccc(Cn2c3ccc(OC(F)(F)F)cc3c3ncccc32)cc1` [Compound 22, 4-((8-(trifluoromethoxy)-5H-pyrido[3,2-b]indol-5-yl)methyl)benzenesulfonamide], the IC50 is 1 to 10 µM against ENPP-1 [1] and less than 1 µM against ENPP-1 [2].
